Test results: patent publication US11629123B2, “Selenopsammaplin A and derivative thereof, preparation method therefor, and composition for preventing and treating cancer, containing same as active ingredients” (priority 2017, dated 2023)
“Also recorded” adds a separate entry of the source. Like-named read-outs stand apart in the source and are kept apart here.

Assays:
Assay type in all cases: cell-based
[1] = tested on: colorectal cancer cell line HCT116; experiment: cells
Protocol: (§1) To confirm the in vitro growth inhibitory efficacy of the samples prepared in Examples 1 to 28 against human lung cancer and colorectal cancer cell lines, the experiments were performed as follows by applying the method described in the literature (Lee S K et al ([…]) Chem Biol Interact 115:215-28). A human lung cancer cell line A549 and a colorectal cancer cell line HCT116 were acquired from the American Type Culture Collection (ATCC, Manassas, Va., USA) and used.
(§2) A549, HCT116 cells were subcultured once or twice weekly under conditions of 37° C. and 5% CO2 using Roswell Park Memorial Institute (RPMI) Medium 1640 (RPMI 1640) containing 10% heat-inactivated Fetal Bovine Serum (FBS), 100 units/mL penicillin, 100 μg/mL streptomycin, and 250 ng/mL amphotericin B. All cells were thawed from liquid nitrogen, subcultured three times or more, and then used in the experiment.
(§3) The effects of the compounds obtained in Examples 1 to 28 on cell growth were measured by a sulforhodamine B (SRB) method (Lee et al (1998) Chem Biol Interact 115: 215-28).
(§4) Specifically, the human lung cancer and colon cancer cell lines used in the present invention were subcultured in a RPMI medium containing 10% FBS, 1% PSF, and the like, 10 μl of a sample dissolved in 10% DMSO and 190 μl (5×10^4 cells/ml) of the cell suspension were placed in each well of a 96-well plate. 190 μl of the cell suspension was placed in at least 16 wells, cultured for 30 minutes, and used as a negative control (zero-day control) before the experiment. The cultured cells were fixed with 10% trichloroacetic acid (TCA) and then stained with an SRB solution, the staining solution was dissolved with 10 mM Tris-base, and absorbance was measured at 515 nm. Using the cell culture in 10% DMSO as a control, cell viability according to the treatment with each test sample was measured using the following Equation 1. % Cell viability=(OD(sample)−OD(0-day))/(OD(10% DMSO)−OD(0-day))×100 [Equation 1]
(§5) When the control in which the sample was not treated was defined as 100%, the value of the sample treatment group was shown as a percentage with respect to the control, and each test sample treatment was determined by the mean value±SEM of the duplicate or triplicate test. The IC50 value is the concentration of the test sample for 50% viability.

[2] = tested on: human lung cancer cell line A549; experiment: cells
Protocol: as §1, §2, §3, §4, §5

[3] = tested on: human lung cancer and colorectal cancer cell lines; experiment: In vitro growth inhibition (SRB), summary over both cell lines; settings: compared with control compound etoposide
Protocol: as §1, §2, §3, §4, §5

[4] = Homo sapiens, HCT-116, read-out: HCT116-LC50, Table 2, SRB, concentration for 50% viability
[5] = Homo sapiens, HCT-116, read-out: HCT116-LC50, Table 3, SRB, concentration for 50% viability
[6] = Homo sapiens, A549, read-out: A549-LC50, Table 2, SRB, concentration for 50% viability
[7] = Homo sapiens, A549, read-out: A549-LC50, Table 3, SRB, concentration for 50% viability
[8] = Homo sapiens, HCT-116, read-out: HCT116-LC50
[9] = Homo sapiens, A549, read-out: A549-LC50

| SMILES | CC50 [1, 5] [nM] | CC50 [2, 7] [nM] | CC50 [1, 8] [nM] | CC50 [2, 9] [nM] | other results |
| --- | --- | --- | --- | --- | --- |
| COc1cc([C@@H]2c3cc4c(cc3[C@@H](O[C@@H]3O[C@@H]5CO[C@@H](C)O[C@H]5[C@H](O)[C@H]3O)[C@H]3COC(=O)[C@H]23)OCO4)cc(OC)c1O [Etoposide, reference compound] | 610 | 710 | – | – | CC50 [1, 4]: 900 nM; CC50 [2, 6]: 420 nM |
| O=C(NCCSSCCNC(=O)/C(Cc1ccc(O)c(Br)c1)=N/O)/C(Cc1ccc(O)c(Br)c1)=N/O [Psammaplin A] | – | – | – | – | CC50 ([1]; Table 2, SRB, concentration for 50% viability, read-out: HCT116-LC50): 610 nM; CC50 ([1]; Table 3, SRB, concentration for 50% viability, read-out: HCT116-LC50): 610 nM; CC50 ([2]; Table 2, SRB, concentration for 50% viability, read-out: A549-LC50): 1760 nM; CC50 ([2]; Table 3, SRB, concentration for 50% viability, read-out: A549-LC50): 1760 nM |
| O=C(NCC[Se][Se]CCNC(=O)/C(Cc1ccc(O)c(Br)c1)=N/O)/C(Cc1ccc(O)c(Br)c1)=N/O [SSM-1, (2E,2′E)-N,N′-(diselanediylbis(ethane-2,1-diyl))bis(3-(3-bromo-4-hydroxyphenyl)-2-(hydroxyimino)propanamide)] | – | – | – | – | cancer cell growth inhibitory activity compared to etoposide [3]: higher inhibitory activity than a control compound etoposide; also recorded: excellent cancer cell growth inhibitory potential even compared to etoposide; CC50 [1, 4]: 10 nM; CC50 [2, 6]: 30 nM |
| O=C(NCC[Se][Se]CCNC(=O)/C(Cc1ccc(O)c(Cl)c1)=N/O)/C(Cc1ccc(O)c(Cl)c1)=N/O [SSM-2, (2E,2′E)-N,N′-(diselanediylbis(ethane-2,1-diyl))bis(3-(3-chloro-4-hydroxyphenyl)-2-(hydroxyimino)propanamide)] | – | – | – | – | cancer cell growth inhibitory activity compared to etoposide [3]: higher inhibitory activity than a control compound etoposide; also recorded: excellent cancer cell growth inhibitory potential even compared to etoposide; CC50 [1, 4]: 20 nM; CC50 [2, 6]: 50 nM |
| O=C(NCC[Se][Se]CCNC(=O)/C(Cc1ccc(F)cc1)=N/O)/C(Cc1ccc(F)cc1)=N/O [SSM-5, (2E,2′E)-N,N′-(diselanediylbis(ethane-2,1-diyl))bis(3-(4-fluorophenyl)-2-(hydroxyimino)propanamide)] | – | – | – | – | CC50 [1, 4]: 110 nM; CC50 [2, 6]: 100 nM |
| O=C(NCC[Se][Se]CCNC(=O)/C(Cc1ccc(Cl)cc1)=N/O)/C(Cc1ccc(Cl)cc1)=N/O [SSM-6, (2E,2′E)-N,N′-(diselanediylbis(ethane-2,1-diyl))bis(3-(4-chlorophenyl)-2-(hydroxyimino)propanamide)] | – | – | 280 | 250 | – |
| O=C(NCC[Se][Se]CCNC(=O)/C(Cc1ccc(Br)cc1)=N/O)/C(Cc1ccc(Br)cc1)=N/O [SSM-7, (2E,2′E)-N,N′-(diselanediylbis(ethane-2,1-diyl))bis(3-(4-bromophenyl)-2-(hydroxyimino)propanamide)] | – | – | – | – | CC50 [1, 4]: 300 nM; CC50 [2, 6]: 320 nM |
| O=C(NCC[Se][Se]CCNC(=O)/C(Cc1ccc(F)c(F)c1)=N/O)/C(Cc1ccc(F)c(F)c1)=N/O [SSM-8, (2E,2′E)-N,N′-(diselanediylbis(ethane-2,1-diyl))bis(3-(3,4-difluorophenyl)-2-(hydroxyimino)propanamide)] | – | – | 190 | 200 | – |
| O=C(NCC[Se][Se]CCNC(=O)/C(Cc1ccc(Cl)c(Cl)c1)=N/O)/C(Cc1ccc(Cl)c(Cl)c1)=N/O [SSM-9, (2E,2′E)-N,N′-(diselanediylbis(ethane-2,1-diyl))bis(3-(3,4-dichlorophenyl)-2-(hydroxyimino)propanamide)] | – | – | 520 | 280 | – |
| O=C(NCC[Se][Se]CCNC(=O)/C(Cc1ccc(OCc2ccccc2)cc1)=N/O)/C(Cc1ccc(OCc2ccccc2)cc1)=N/O [SSM-11, (2E,2′E)-N,N′-(diselanediylbis(ethane-2,1-diyl))bis(3-(4-(benzyloxy)phenyl)-2-(hydroxyimino)propanamide)] | – | – | – | – | CC50 [1, 4]: 100 nM; CC50 [2, 6]: 140 nM |
| CC(C)(C)c1ccc(C/C(=N\O)C(=O)NCC[Se][Se]CCNC(=O)/C(Cc2ccc(C(C)(C)C)cc2)=N/O)cc1 [SSM-13, (2E,2′E)-N,N′-(diselanediylbis(ethane-2,1-diyl))bis(3-(4-(tert-butyl)phenyl)-2-(hydroxyimino)propanamide)] | – | – | 130 | 100 | – |
| O=C(NCC[Se][Se]CCNC(=O)/C(Cc1ccc2ccccc2c1)=N/O)/C(Cc1ccc2ccccc2c1)=N/O [SSM-14, (2E,2′E)-N,N′-(diselanediylbis(ethane-2,1-diyl))bis(2-(hydroxyimino)-3-(naphthalen-2-yl)propanamide)] | – | – | – | – | CC50 [1, 4]: 120 nM; CC50 [2, 6]: 380 nM |
| O=C(NCC[Se]Sc1ccccc1)/C(Cc1ccc(O)c(Br)c1)=N/O [SSM-15, (E)-3-(3-bromo-4-hydroxyphenyl)-2-(hydroxyimino)-N-(2-((phenylthio)selanyl)ethyl)propanamide] | 10 | 100 | – | – | – |
| O=C(NCC[Se]Sc1ccccc1)/C(Cc1ccc(O)c(Cl)c1)=N/O [SSM-16, (E)-3-(3-chloro-4-hydroxyphenyl)-2-(hydroxyimino)-N-(2-((phenylthio)selanyl)ethyl)propanamide] | 90 | 110 | – | – | – |
| O=C(NCC[Se]Sc1ccccc1)/C(Cc1ccc(O)c(F)c1)=N/O [SSM-17, (E)-3-(3-fluoro-4-hydroxyphenyl)-2-(hydroxyimino)-N-(2-((phenylthio)selanyl)ethyl)propanamide] | 200 | 290 | – | – | – |
| O=C(NCC[Se]Sc1ccccc1)/C(Cc1ccccc1)=N/O [SSM-18, (E)-2-(hydroxyimino)-3-phenyl-N-(2-((phenylthio)selanyl)ethyl)propanamide] | 130 | 280 | – | – | – |
| O=C(NCC[Se]Sc1ccccc1)/C(Cc1ccc(F)cc1)=N/O [SSM-19, (E)-3-(4-fluorophenyl)-2-(hydroxyimino)-N-(2-((phenylthio)selanyl)ethyl)propanamide] | 330 | 490 | – | – | – |
| O=C(NCC[Se]Sc1ccccc1)/C(Cc1ccc(Cl)cc1)=N/O [SSM-20, (E)-3-(4-chlorophenyl)-2-(hydroxyimino)-N-(2-((phenylthio)selanyl)ethyl)propanamide] | – | – | 330 | 490 | – |
| O=C(NCC[Se]Sc1ccccc1)/C(Cc1ccc(Br)cc1)=N/O [SSM-21, (E)-3-(4-bromophenyl)-2-(hydroxyimino)-N-(2-((phenylthio)selanyl)ethyl)propanamide] | 180 | 510 | – | – | – |
| O=C(NCC[Se]Sc1ccccc1)/C(Cc1ccc(F)c(F)c1)=N/O [SSM-22, (E)-3-(3,4-difluorophenyl)-2-(hydroxyimino)-N-(2-((phenylthio)selanyl)ethyl)propanamide] | – | – | 310 | 480 | – |
| O=C(NCC[Se]Sc1ccccc1)/C(Cc1ccc(Cl)c(Cl)c1)=N/O [SSM-23, (E)-3-(3,4-dichlorophenyl)-2-(hydroxyimino)-N-(2-((phenylthio)selanyl)ethyl)propanamide] | – | – | 50 | 280 | – |
| CCOc1ccc(C/C(=N\O)C(=O)NCC[Se]Sc2ccccc2)cc1 [SSM-24, (E)-3-(4-ethoxyphenyl)-2-(hydroxyimino)-N-(2-((phenylthio)selanyl)ethyl)propanamide] | 130 | 330 | – | – | – |
| O=C(NCC[Se]Sc1ccccc1)/C(Cc1ccc(OCc2ccccc2)cc1)=N/O [SSM-25, (E)-3-(4-(benzyloxy)phenyl)-2-(hydroxyimino)-N-(2-((phenylthio)selanyl)ethyl)propanamide] | 80 | 180 | – | – | – |
| O=C(NCC[Se]Sc1ccccc1)/C(Cc1ccc([N+](=O)[O-])cc1)=N/O [SSM-26, (E)-2-(hydroxyimino)-3-(4-nitrophenyl)-N-(2-((phenylthio)selanyl)ethyl)propanamide] | – | – | 120 | 120 | – |
| O=C(NCC[Se]Sc1ccccc1)/C(Cc1ccc2ccccc2c1)=N/O [SSM-28, (E)-2-(hydroxyimino)-3-(naphthalen-2-yl)-N-(2-((phenylthio)selanyl)ethyl)propanamide] | 20 | 120 | – | – | – |
